Laboratory results: ChEMBL document CHEMBL5331125, “Design, Synthesis, Molecular Docking, and Biological Evaluation of Novel Pimavanserin-Based Analogues as Potential Serotonin 5-HT2A Receptor Inverse Agonists” (J Med Chem, 2023)
pIC50, pKi: −log10 of the molar value.

Key:
[1] = biological target: T1, 5-hydroxytryptamine receptor 2A (Homo sapiens, UniProt P28223); assay: Inverse agonist activity at human prefrontal cortex 5-HT2A receptor assessed as […] in [35S]GTPgammaS binding by liquid scintillation spectrometry analysis; assay type: functional, tissue-based
T1 sequence (P28223 whole entry): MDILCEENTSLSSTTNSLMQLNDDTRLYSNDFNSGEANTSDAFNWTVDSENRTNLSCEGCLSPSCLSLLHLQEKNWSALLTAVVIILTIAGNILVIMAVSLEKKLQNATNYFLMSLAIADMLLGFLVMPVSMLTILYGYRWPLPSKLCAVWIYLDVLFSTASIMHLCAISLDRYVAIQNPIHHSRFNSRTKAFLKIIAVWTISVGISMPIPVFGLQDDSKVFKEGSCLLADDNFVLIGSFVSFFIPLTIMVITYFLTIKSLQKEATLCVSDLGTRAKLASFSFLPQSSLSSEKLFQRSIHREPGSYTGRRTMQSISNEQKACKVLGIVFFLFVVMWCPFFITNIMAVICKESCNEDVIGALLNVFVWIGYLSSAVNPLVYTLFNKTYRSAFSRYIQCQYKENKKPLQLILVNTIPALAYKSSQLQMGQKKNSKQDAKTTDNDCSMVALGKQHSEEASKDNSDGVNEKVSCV

[2] = biological target: T1, 5-hydroxytryptamine receptor 2A; assay: Displacement of [3H]ketanserin from human 5-HT2A receptor incubated for 120 mins by microbeta liquid scintillation counter analysis
[3] = biological target: T1, 5-hydroxytryptamine receptor 2A; assay: Inverse agonist activity at human postmortem human brain membrane 5-HT2A receptor assessed as […] in [35S]GTPgammaS binding by liquid scintillation spectrometry analysis; assay type: functional, cell membranes
[4] = biological target: T1, 5-hydroxytryptamine receptor 2A; assay: Inverse agonist activity at human 5-HT2A receptor assessed as […] in [35S]GTPgammaS binding by liquid scintillation spectrometry analysis; assay type: functional
[5] = biological target: T1, 5-hydroxytryptamine receptor 2A; assay: Inverse agonist activity at human 5-HT2A receptor expressed in cell membrane assessed as […] in [35S]GTPgammaS binding by liquid scintillation spectrometry analysis; assay type: functional, cell membranes
[6] = biological target: T1, 5-hydroxytryptamine receptor 2A; assay: Displacement of [3H]ketanserin from postmortem human brain membrane homogenate 5-HT2A receptor incubated for 120 mins by microbeta liquid scintillation counter analysis; assay type: cell membranes
[7] = biological target: T1, 5-hydroxytryptamine receptor 2A; assay: Displacement of [3H]ketanserin human recombinant 5-HT2A receptor by Cheng-Prusoff equation analysis
[8] = biological target: T1, 5-hydroxytryptamine receptor 2A; assay: Displacement of [3H]ketanserin from human brain cortex 5-HT2A receptor by Cheng-Prusoff equation analysis; assay type: tissue-based

| Compound | pIC50 [1] | pKi [2] | pIC50 [3] | pIC50 [4] | pIC50 [5] | pKi [6] | pKi [7] | pKi [8] |
| --- | --- | --- | --- | --- | --- | --- | --- | --- |
| CC1COc2ccc(CNC(=O)N(Cc3ccc(F)cc3)C3CCN(C)CC3)cc21 (stereo not given) | 7.90 | 9.80 | 9.50 | 9.80 | 7.10 | 8.30 |  |  |
| CN1CCC(N(Cc2ccc(F)cc2)C(=O)NCc2ccc3c(c2)CC(C)(C)O3)CC1 | 7.90 | 11.60 | 10.30 | 10.20 | 7.10 | 10.30 | 11.52 | 10.22 |
| CC1Cc2cc(CNC(=O)N(Cc3ccc(F)cc3)C3CCN(C)CC3)ccc2O1 (stereo not given) | 7.90 | 10.50 | 9.60 | 9.60 | 7.10 | 9.30 |  |  |
